Test results from patent publication US20260130395A1, “Water Dispersible Botanical Compositions” (Aquila Black Limited, priority 2021, published 2026).

Columns and labels:
[1] = Stability of cannabinoid entourage and Vitamin E components of the powder concentrate by LCMSMS; assay type: physicochemical; details: powder stored at 21-25° C.
Procedure: At each time period, 0.05 g of powder was dissolved in 10 ml-15 of ethanol, diluted to fall within the analytical range, and injected into the LCMSMS for analysis.

[2] = Stability of cannabinoid compounds and Vitamin E components in Beverage 1 (AB White) by LCMSMS; assay type: physicochemical; details: for Stability of Plant-Derived Cannabinoid Compounds in AB White, 8° C.: AB White stored at 8° C.; for Stability of Plant-Derived Cannabinoid Compounds in AB White, 21-25° C.: AB White stored at 21-25° C.

## CCCCCc1cc(O)c(C/C=C(\C)CCC=C(C)C)c(O)c1 [CBG, cannabigerol]
[1]; 0 days
  Stability of Plant-Derived Cannabinoid Compounds in Powder Concentrate: 1.1 mg/g powder
[1]; 1 days
  Stability of Plant-Derived Cannabinoid Compounds in Powder Concentrate: 1.07 mg/g powder
[1]; 2 days
  Stability of Plant-Derived Cannabinoid Compounds in Powder Concentrate: 1.08 mg/g powder
[1]; 3 days
  Stability of Plant-Derived Cannabinoid Compounds in Powder Concentrate: 1.09 mg/g powder
[1]; 5 days
  Stability of Plant-Derived Cannabinoid Compounds in Powder Concentrate: 1.11 mg/g powder
[1]; 8 days
  Stability of Plant-Derived Cannabinoid Compounds in Powder Concentrate: 1.07 mg/g powder
[1]; 9 days
  Stability of Plant-Derived Cannabinoid Compounds in Powder Concentrate: 1.09 mg/g powder
[1]; 10 days
  Stability of Plant-Derived Cannabinoid Compounds in Powder Concentrate: 1.08 mg/g powder
[1]; 11 days
  Stability of Plant-Derived Cannabinoid Compounds in Powder Concentrate: 1.14 mg/g powder
[1]; 12 days
  Stability of Plant-Derived Cannabinoid Compounds in Powder Concentrate: 1.10 mg/g powder
[1]; 15 days
  Stability of Plant-Derived Cannabinoid Compounds in Powder Concentrate: 1.08 mg/g powder
[1]; 16 days
  Stability of Plant-Derived Cannabinoid Compounds in Powder Concentrate: 1.06 mg/g powder
[1]; 17 days
  Stability of Plant-Derived Cannabinoid Compounds in Powder Concentrate: 1.06 mg/g powder
[1]; 18 days
  Stability of Plant-Derived Cannabinoid Compounds in Powder Concentrate: 1.13 mg/g powder
[1]; 19 days
  Stability of Plant-Derived Cannabinoid Compounds in Powder Concentrate: 1.14 mg/g powder
[1]; 22 days
  Stability of Plant-Derived Cannabinoid Compounds in Powder Concentrate: 1.12 mg/g powder
[1]; 23 days
  Stability of Plant-Derived Cannabinoid Compounds in Powder Concentrate: 1.13 mg/g powder
[1]; 24 days
  Stability of Plant-Derived Cannabinoid Compounds in Powder Concentrate: 1.09 mg/g powder
[1]; 25 days
  Stability of Plant-Derived Cannabinoid Compounds in Powder Concentrate: 1.13 mg/g powder
[1]; 26 days
  Stability of Plant-Derived Cannabinoid Compounds in Powder Concentrate: 1.14 mg/g powder
[1]; 29 days
  Stability of Plant-Derived Cannabinoid Compounds in Powder Concentrate: 1.10 mg/g powder
[1]; 30 days
  Stability of Plant-Derived Cannabinoid Compounds in Powder Concentrate: 1.07 mg/g powder
[1]; 60 days
  Stability of Plant-Derived Cannabinoid Compounds in Powder Concentrate: 1.11 mg/g powder
[1]; 90 days
  Stability of Plant-Derived Cannabinoid Compounds in Powder Concentrate: 1.13 mg/g powder
[1]; 120 days
  Stability of Plant-Derived Cannabinoid Compounds in Powder Concentrate: 1.09 mg/g powder
[1]; 150 days
  Stability of Plant-Derived Cannabinoid Compounds in Powder Concentrate: 1.11 mg/g powder
[1]; 180 days
  Stability of Plant-Derived Cannabinoid Compounds in Powder Concentrate: 1.07 mg/g powder
[1]; 210 days
  Stability of Plant-Derived Cannabinoid Compounds in Powder Concentrate: 1.06 mg/g powder
[1]; 240 days
  Stability of Plant-Derived Cannabinoid Compounds in Powder Concentrate: 1.12 mg/g powder
[1]; 270 days
  Stability of Plant-Derived Cannabinoid Compounds in Powder Concentrate: 1.15 mg/g powder
[1]; 300 days
  Stability of Plant-Derived Cannabinoid Compounds in Powder Concentrate: 1.09 mg/g powder
[1]; 330 days
  Stability of Plant-Derived Cannabinoid Compounds in Powder Concentrate: 1.10 mg/g powder
[1]; 360 days
  Stability of Plant-Derived Cannabinoid Compounds in Powder Concentrate: 1.09 mg/g powder
[1]; 390 days
  Stability of Plant-Derived Cannabinoid Compounds in Powder Concentrate: 1.14 mg/g powder
[1]; 420 days
  Stability of Plant-Derived Cannabinoid Compounds in Powder Concentrate: 1.11 mg/g powder
[1]; 450 days
  Stability of Plant-Derived Cannabinoid Compounds in Powder Concentrate: 1.06 mg/g powder
[1]; 480 days
  Stability of Plant-Derived Cannabinoid Compounds in Powder Concentrate: 1.12 mg/g powder
[1]; 510 days
  Stability of Plant-Derived Cannabinoid Compounds in Powder Concentrate: 1.07 mg/g powder
[1]; 540 days
  Stability of Plant-Derived Cannabinoid Compounds in Powder Concentrate: 1.07 mg/g powder
[1]; 570 days
  Stability of Plant-Derived Cannabinoid Compounds in Powder Concentrate: 1.06 mg/g powder
[2]; 0 days
  Stability of Plant-Derived Cannabinoid Compounds in AB White, 8° C.: 4.87 µg/mL
  Stability of Plant-Derived Cannabinoid Compounds in AB White, 21-25° C.: 4.87 µg/mL
[2]; 1 days
  Stability of Plant-Derived Cannabinoid Compounds in AB White, 8° C.: 4.74 µg/mL
  Stability of Plant-Derived Cannabinoid Compounds in AB White, 21-25° C.: 4.73 µg/mL
[2]; 2 days
  Stability of Plant-Derived Cannabinoid Compounds in AB White, 8° C.: 4.91 µg/mL
  Stability of Plant-Derived Cannabinoid Compounds in AB White, 21-25° C.: 4.72 µg/mL
[2]; 3 days
  Stability of Plant-Derived Cannabinoid Compounds in AB White, 8° C.: 4.74 µg/mL
  Stability of Plant-Derived Cannabinoid Compounds in AB White, 21-25° C.: 4.75 µg/mL
[2]; 5 days
  Stability of Plant-Derived Cannabinoid Compounds in AB White, 8° C.: 4.88 µg/mL
  Stability of Plant-Derived Cannabinoid Compounds in AB White, 21-25° C.: 4.89 µg/mL
[2]; 8 days
  Stability of Plant-Derived Cannabinoid Compounds in AB White, 8° C.: 4.86 µg/mL
  Stability of Plant-Derived Cannabinoid Compounds in AB White, 21-25° C.: 4.90 µg/mL
[2]; 9 days
  Stability of Plant-Derived Cannabinoid Compounds in AB White, 8° C.: 4.89 µg/mL
  Stability of Plant-Derived Cannabinoid Compounds in AB White, 21-25° C.: 4.79 µg/mL
[2]; 10 days
  Stability of Plant-Derived Cannabinoid Compounds in AB White, 8° C.: 4.77 µg/mL
  Stability of Plant-Derived Cannabinoid Compounds in AB White, 21-25° C.: 4.68 µg/mL
[2]; 11 days
  Stability of Plant-Derived Cannabinoid Compounds in AB White, 8° C.: 4.87 µg/mL
  Stability of Plant-Derived Cannabinoid Compounds in AB White, 21-25° C.: 4.74 µg/mL
[2]; 12 days
  Stability of Plant-Derived Cannabinoid Compounds in AB White, 8° C.: 4.87 µg/mL
  Stability of Plant-Derived Cannabinoid Compounds in AB White, 21-25° C.: 4.88 µg/mL
[2]; 15 days
  Stability of Plant-Derived Cannabinoid Compounds in AB White, 8° C.: 4.81 µg/mL
  Stability of Plant-Derived Cannabinoid Compounds in AB White, 21-25° C.: 4.87 µg/mL
[2]; 16 days
  Stability of Plant-Derived Cannabinoid Compounds in AB White, 8° C.: 4.84 µg/mL
  Stability of Plant-Derived Cannabinoid Compounds in AB White, 21-25° C.: 4.80 µg/mL
[2]; 17 days
  Stability of Plant-Derived Cannabinoid Compounds in AB White, 8° C.: 4.78 µg/mL
  Stability of Plant-Derived Cannabinoid Compounds in AB White, 21-25° C.: 4.80 µg/mL
[2]; 18 days
  Stability of Plant-Derived Cannabinoid Compounds in AB White, 8° C.: 4.81 µg/mL
  Stability of Plant-Derived Cannabinoid Compounds in AB White, 21-25° C.: 4.72 µg/mL
[2]; 19 days
  Stability of Plant-Derived Cannabinoid Compounds in AB White, 8° C.: 4.83 µg/mL
  Stability of Plant-Derived Cannabinoid Compounds in AB White, 21-25° C.: 4.68 µg/mL
[2]; 22 days
  Stability of Plant-Derived Cannabinoid Compounds in AB White, 8° C.: 4.75 µg/mL
  Stability of Plant-Derived Cannabinoid Compounds in AB White, 21-25° C.: 4.68 µg/mL
[2]; 23 days
  Stability of Plant-Derived Cannabinoid Compounds in AB White, 8° C.: 4.89 µg/mL
  Stability of Plant-Derived Cannabinoid Compounds in AB White, 21-25° C.: 4.85 µg/mL
[2]; 24 days
  Stability of Plant-Derived Cannabinoid Compounds in AB White, 8° C.: 4.83 µg/mL
  Stability of Plant-Derived Cannabinoid Compounds in AB White, 21-25° C.: 4.80 µg/mL
[2]; 25 days
  Stability of Plant-Derived Cannabinoid Compounds in AB White, 8° C.: 4.89 µg/mL
  Stability of Plant-Derived Cannabinoid Compounds in AB White, 21-25° C.: 4.86 µg/mL
[2]; 26 days
  Stability of Plant-Derived Cannabinoid Compounds in AB White, 8° C.: 4.77 µg/mL
  Stability of Plant-Derived Cannabinoid Compounds in AB White, 21-25° C.: 4.78 µg/mL
[2]; 29 days
  Stability of Plant-Derived Cannabinoid Compounds in AB White, 8° C.: 4.91 µg/mL
  Stability of Plant-Derived Cannabinoid Compounds in AB White, 21-25° C.: 4.76 µg/mL
[2]; 30 days
  Stability of Plant-Derived Cannabinoid Compounds in AB White, 8° C.: 4.79 µg/mL
  Stability of Plant-Derived Cannabinoid Compounds in AB White, 21-25° C.: 4.73 µg/mL
[2]; 60 days
  Stability of Plant-Derived Cannabinoid Compounds in AB White, 8° C.: 4.68 µg/mL
  Stability of Plant-Derived Cannabinoid Compounds in AB White, 21-25° C.: 4.83 µg/mL
[2]; 90 days
  Stability of Plant-Derived Cannabinoid Compounds in AB White, 8° C.: 4.66 µg/mL
  Stability of Plant-Derived Cannabinoid Compounds in AB White, 21-25° C.: 4.65 µg/mL
[2]; 120 days
  Stability of Plant-Derived Cannabinoid Compounds in AB White, 8° C.: 4.89 µg/mL
  Stability of Plant-Derived Cannabinoid Compounds in AB White, 21-25° C.: 4.59 µg/mL
[2]; 150 days
  Stability of Plant-Derived Cannabinoid Compounds in AB White, 8° C.: 4.83 µg/mL
  Stability of Plant-Derived Cannabinoid Compounds in AB White, 21-25° C.: 4.63 µg/mL
[2]; 180 days
  Stability of Plant-Derived Cannabinoid Compounds in AB White, 8° C.: 4.71 µg/mL
  Stability of Plant-Derived Cannabinoid Compounds in AB White, 21-25° C.: 4.79 µg/mL
[2]; 210 days
  Stability of Plant-Derived Cannabinoid Compounds in AB White, 8° C.: 4.73 µg/mL
  Stability of Plant-Derived Cannabinoid Compounds in AB White, 21-25° C.: 4.75 µg/mL
[2]; 240 days
  Stability of Plant-Derived Cannabinoid Compounds in AB White, 8° C.: 4.69 µg/mL
  Stability of Plant-Derived Cannabinoid Compounds in AB White, 21-25° C.: 4.79 µg/mL
[2]; 270 days
  Stability of Plant-Derived Cannabinoid Compounds in AB White, 8° C.: 4.72 µg/mL
  Stability of Plant-Derived Cannabinoid Compounds in AB White, 21-25° C.: 4.62 µg/mL
[2]; 300 days
  Stability of Plant-Derived Cannabinoid Compounds in AB White, 8° C.: 4.74 µg/mL
  Stability of Plant-Derived Cannabinoid Compounds in AB White, 21-25° C.: 4.67 µg/mL
[2]; 330 days
  Stability of Plant-Derived Cannabinoid Compounds in AB White, 8° C.: 4.69 µg/mL
  Stability of Plant-Derived Cannabinoid Compounds in AB White, 21-25° C.: 4.71 µg/mL
[2]; 360 days
  Stability of Plant-Derived Cannabinoid Compounds in AB White, 8° C.: 4.66 µg/mL
  Stability of Plant-Derived Cannabinoid Compounds in AB White, 21-25° C.: 4.69 µg/mL
[2]; 390 days
  Stability of Plant-Derived Cannabinoid Compounds in AB White, 8° C.: 4.68 µg/mL
  Stability of Plant-Derived Cannabinoid Compounds in AB White, 21-25° C.: 4.70 µg/mL
[2]; 420 days
  Stability of Plant-Derived Cannabinoid Compounds in AB White, 8° C.: 4.66 µg/mL
  Stability of Plant-Derived Cannabinoid Compounds in AB White, 21-25° C.: 4.72 µg/mL
[2]; 450 days
  Stability of Plant-Derived Cannabinoid Compounds in AB White, 8° C.: 4.68 µg/mL
  Stability of Plant-Derived Cannabinoid Compounds in AB White, 21-25° C.: 4.73 µg/mL
[2]; 480 days
  Stability of Plant-Derived Cannabinoid Compounds in AB White, 8° C.: 4.64 µg/mL
  Stability of Plant-Derived Cannabinoid Compounds in AB White, 21-25° C.: 4.46 µg/mL
[2]; 510 days
  Stability of Plant-Derived Cannabinoid Compounds in AB White, 8° C.: 4.49 µg/mL
  Stability of Plant-Derived Cannabinoid Compounds in AB White, 21-25° C.: 4.51 µg/mL
[2]; 540 days
  Stability of Plant-Derived Cannabinoid Compounds in AB White, 8° C.: 4.53 µg/mL
  Stability of Plant-Derived Cannabinoid Compounds in AB White, 21-25° C.: 4.48 µg/mL
[2]; 570 days
  Stability of Plant-Derived Cannabinoid Compounds in AB White, 8° C.: 4.46 µg/mL
  Stability of Plant-Derived Cannabinoid Compounds in AB White, 21-25° C.: 4.47 µg/mL
